Data from US20240247015A1, “PHOSPHORUS DERIVATIVES AS NOVEL SOS1 INHIBITORS” (BAYER AKTIENGESELLSCHAFT, priority 2021, published 2024).

Molecular target: interaction of human SOS1 (SOS1) with human K-RasG12C (Homo sapiens (Human), UniProt Q07889)
Experiment: Biochemical assay: hK-RasG12C interaction assay with hSOS1 (HTRF)
Type: binding
Details: GST-hK-RasG12C with His-hSOS1, 60 min incubation at 20° C., mean, read-out: K-RasG12C - SOS interaction assay IC50 (mean)
In short: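 Compounds, duplicates at 11 concentrations from 0.073 nM to 20 µM, were preincubated 2 min with 10 nM GST-hK-RasG12C, then 20 nM His-hSOS1 was added, all at 20 °C. After 60 min, 665/620 nm HTRF ratio normalized to DMSO and SOS1-free controls; IC50 by 4-parameter fit.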

Sequence of interaction of human SOS1 (SOS1) with human K-RasG12C (Q07889 564-1049 limits assumed): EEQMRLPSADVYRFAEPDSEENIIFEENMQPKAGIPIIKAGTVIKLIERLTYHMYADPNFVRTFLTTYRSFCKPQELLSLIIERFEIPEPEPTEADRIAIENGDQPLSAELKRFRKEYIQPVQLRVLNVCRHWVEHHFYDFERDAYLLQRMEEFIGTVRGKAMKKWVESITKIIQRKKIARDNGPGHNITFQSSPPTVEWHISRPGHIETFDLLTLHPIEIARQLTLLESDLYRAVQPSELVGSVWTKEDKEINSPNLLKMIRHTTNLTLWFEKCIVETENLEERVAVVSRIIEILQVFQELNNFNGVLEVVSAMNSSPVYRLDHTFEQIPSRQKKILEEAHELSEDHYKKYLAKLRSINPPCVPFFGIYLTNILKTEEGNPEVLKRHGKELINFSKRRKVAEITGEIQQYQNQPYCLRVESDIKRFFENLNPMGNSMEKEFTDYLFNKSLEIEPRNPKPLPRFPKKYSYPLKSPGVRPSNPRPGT

SMILES	IC50 [nM]
Cc1nc(N[C@H](C)c2cccc(C(F)(F)F)c2C)c2cc(P3(=O)CCN(C(=O)C4COC4)CC3)ncc2n1 [Example 164, 4-[2-methyl-4-{{(1R)-1-[2-methyl-3-(trifluoromethyl)phenyl]ethyl}amino)pyrido[3,4-d]pyrimidin-6-yl]-1-(oxetane-3-carbonyl)-1,4lambda^5-azaphosphinan-4-one]	7.01
Cc1nc(N[C@H](C)c2cccc(C(F)(F)F)c2C)c2cc(P3(=O)CCN(C(=O)[C@H](C)O)CC3)ncc2n1 [Example 165, 1-[(2S)-2-hydroxypropanoyl]-4-[2-methyl-4-{{(1R)-1-[2-methyl-3-(trifluoromethyl)phenyl]ethyl}amino)pyrido[3,4-d]pyrimidin-6-yl]-1,4lambda^5-azaphosphinan-4-one]	4.37
Cc1nc(N[C@H](C)c2cccc(C(F)(F)F)c2C)c2cc(P3(=O)CCN(C(=O)C4(F)CC4)CC3)ncc2n1 [Example 168, 1-(1-fluorocyclopropane-1-carbonyl)-4-[2-methyl-4-({(1R)-1-[2-methyl-3-(trifluoromethyl)phenyl]ethyl}amino)pyrido[3,4-d]pyrimidin-6-yl]-1,4lambda^5-azaphosphinan-4-one]	12
Cc1nc(N[C@H](C)c2cccc(C(F)(F)F)c2C)c2cc(P3(=O)CCN(C(=O)C4(C(F)F)CC4)CC3)ncc2n1 [Example 169, 1-[1-(difluoromethyl)cyclopropane-1-carbonyl]-4-[2-methyl-4-({(1R)-1-[2-methyl-3-(trifluoromethyl)phenyl]ethyl}amino)pyrido[3,4-d]pyrimidin-6-yl]-1,4lambda^5-azaphosphinan-4-one]	9.55
Cc1nc(N[C@H](C)c2cccc(C(F)(F)F)c2C)c2cc(P3(=O)CCN(C(=O)C4CC(F)(F)C4)CC3)ncc2n1 [Example 170, 1-(3,3-difluorocyclobutane-1-carbonyl)-4-[2-methyl-4-({(1R)-1-[2-methyl-3-(trifluoromethyl)phenyl]ethyl}amino)pyrido[3,4-d]pyrimidin-6-yl]-1,4lambda^5-azaphosphinan-4-one]	11.3
Cc1nc(N[C@H](C)c2cccc(C(F)(F)F)c2C)c2cc(P3(=O)CCN(C(=O)C(C)C)CC3)ncc2n1 [Example 171, 4-[2-methyl-4-{{(1R)-1-[2-methyl-3-(trifluoromethyl)phenyl]ethyl}amino)pyrido[3,4-d]pyrimidin-6-yl]-1-(2-methylpropanoyl)-1,4lambda^5-azaphosphinan-4-one]	6.76
Cc1nc(N[C@H](C)c2cccc(C(F)(F)C(C)(C)O)c2F)c2cc(P3(=O)CCN(C(=O)C4CC4)CC3)ncc2n1 [Example 172, 1-(cyclopropanecarbonyl)-4-[4-{{(1R)-1-[3-(1,1-difluoro-2-hydroxy-2-methylpropyl)-2-fluorophenyl]ethyl}amino)-2-methylpyrido[3,4-d]pyrimidin-6-yl]-1,4lambda^5-azaphosphinan-4-one]	4.78
CC(=O)NCC(F)(F)c1cccc([C@@H](C)Nc2nc(C)nc3cnc(P4(=O)CCN(C(=O)C5CC5)CC4)cc23)c1F [Example 180, N-(2-{3-[(1R)-1-({6-[1-(cyclopropanecarbonyl)-4-oxo-1,4lambda^5-azaphosphinan-4-yl]-2-methylpyrido[3,4-d]pyrimidin-4-yl}amino)ethyl]-2-fluorophenyl}-2,2-difluoroethyl)acetamide]	4.6
Cc1nc(N[C@H](C)c2cccc(C(F)(F)CN(C)S(C)(=O)=O)c2F)c2cc(P3(=O)CCN(C(=O)C4CC4)CC3)ncc2n1 [Example 181, N-(2-{3-[(1R)-1-({6-[1-(cyclopropanecarbonyl)-4-oxo-1,4lambda^5-azaphosphinan-4-yl]-2-methylpyrido[3,4-d]pyrimidin-4-yl}amino)ethyl]-2-fluorophenyl}-2,2-difluoroethyl)-N-methylmethanesulfonamide]	2.95
CC(=O)N(C)CC(F)(F)c1cccc([C@@H](C)Nc2nc(C)nc3cnc(P4(=O)CCN(C(=O)C5CC5)CC4)cc23)c1F [Example 182, N-(2-{3-[(1R)-1-({6-[1-(cyclopropanecarbonyl)-4-oxo-1,4lambda^5-azaphosphinan-4-yl]-2-methylpyrido[3,4-d]pyrimidin-4-yl}amino)ethyl]-2-fluorophenyl}-2,2-difluoroethyl)-N-methylacetamide]	3.95
Cc1nc(N[C@H](C)c2cccc(C(F)F)c2F)c2cc(P3(=O)CCN(C(N)=O)CC3)ncc2n1 [Example 183]	8.38
Cc1nc(N[C@H](C)c2cccc(C(F)(F)F)c2C)c2cc(P3(=O)CCN(C(=O)NCC(F)F)CC3)ncc2n1 [Example 185]	3.86
CC(=O)N1CCP(=O)(c2cc3c(N[C@H](C)c4cccc(C(F)F)c4C)nc(C)nc3cn2)CC1 [Example 190]	5.9
CC(=O)N1CCP(=O)(c2cc3c(N[C@H](C)c4cccc(C(F)(F)F)c4)nc(C)nc3cn2)CC1 [Example 192]	11.7

The next lines start with the values.

IC50 [nM]	SMILES
4.77	Cc1nc(N[C@H](C)c2cccc(C(F)F)c2F)c2cc(P3(=O)CCN(C(=O)C4CC4)CC3)ncc2n1 [Example 163, 1-(cyclopropanecarbonyl)-4-[4-({(1R)-1-[3-(difluoromethyl)-2-fluorophenyl]ethyl}amino)-2-methylpyrido[3,4-d]pyrimidin-6-yl]-1,4lambda^5-azaphosphinan-4-one]
4.83	Cc1nc(N[C@H](C)c2cccc(C(F)(F)F)c2C)c2cc(P3(=O)CCN(C(=O)[C@@H](C)O)CC3)ncc2n1 [Example 166, 1-[(2R)-2-hydroxypropanoyl]-4-[2-methyl-4-{{(1R)-1-[2-methyl-3-(trifluoromethyl)phenyl]ethyl}amino)pyrido[3,4-d]pyrimidin-6-yl]-1,4lambda^5-azaphosphinan-4-one]
12.7	Cc1nc(N[C@H](C)c2cccc(C(F)(F)F)c2C)c2cc(P3(=O)CCN(C(=O)C4(C#N)CC4)CC3)ncc2n1 [Example 167, 1-{4-[2-methyl-4-{{(1R)-1-[2-methyl-3-(trifluoromethyl)phenyl]ethyl}amino)pyrido[3,4-d]pyrimidin-6-yl]-4-oxo-1,4lambda^5-azaphosphinane-1-carbonyl}cyclopropane-1-carbonitrile]
5.62	Cc1nc(N[C@H](C)c2cccc(C(F)(F)F)c2C)c2cc(P3(=O)CCN(C(=O)C4(O)CC4)CC3)ncc2n1 [Example 173, 1-(1-hydroxycyclopropane-1-carbonyl)-4-[2-methyl-4-({(1R)-1-[2-methyl-3-(trifluoromethyl)phenyl]ethyl}amino)pyrido[3,4-d]pyrimidin-6-yl]-1,4lambda^5-azaphosphinan-4-one]
3.89	Cc1nc(N[C@H](C)c2cccc(C(F)(F)F)c2C)c2cc(P3(=O)CCN(C(=O)C4CC4)CC3)ncc2n1 [Example 174, 1-(cyclopropanecarbonyl)-4-[2-methyl-4-({(1R)-1-[2-methyl-3-(trifluoromethyl)phenyl]ethyl}amino)pyrido[3,4-d]pyrimidin-6-yl]-1,4lambda^5-azaphosphinan-4-one]
9.07	Cc1nc(N[C@H](C)c2cccc(C(F)(F)F)c2C)c2cc(P3(=O)CCN(C(=O)c4cnn(C)c4)CC3)ncc2n1 [Example 175, 4-[2-methyl-4-{{(1R)-1-[2-methyl-3-(trifluoromethyl)phenyl]ethyl}amino)pyrido[3,4-d]pyrimidin-6-yl]-1-(1-methyl-1H-pyrazole-4-carbonyl)-1,4lambda^5-azaphosphinan-4-one]
6.82	CO[C@@H](C)C(=O)N1CCP(=O)(c2cc3c(N[C@H](C)c4cccc(C(F)(F)F)c4C)nc(C)nc3cn2)CC1 [Example 176, 1-[(2S)-2-methoxypropanoyl]-4-[2-methyl-4-{{(1R)-1-[2-methyl-3-(trifluoromethyl)phenyl]ethyl}amino)pyrido[3,4-d]pyrimidin-6-yl]-1,4lambda^5-azaphosphinan-4-one]
5.01	COCC(=O)N1CCP(=O)(c2cc3c(N[C@H](C)c4cccc(C(F)(F)F)c4C)nc(C)nc3cn2)CC1 [Example 177, 1-(methoxyacetyl)-4-[2-methyl-4-({(1R)-1-[2-methyl-3-(trifluoromethyl)phenyl]ethyl}amino)pyrido[3,4-d]pyrimidin-6-yl]-1,4lambda^5-azaphosphinan-4-one]
7.94	Cc1nc(N[C@H](C)c2cccc(C(F)(F)F)c2C)c2cc(P3(=O)CCN(C(=O)C4(CO)CC4)CC3)ncc2n1 [Example 178, 1-[1-(hydroxymethyl)cyclopropane-1-carbonyl]-4-[2-methyl-4-{{(1R)-1-[2-methyl-3-(trifluoromethyl)phenyl]ethyl}amino)pyrido[3,4-d]pyrimidin-6-yl]-1,4lambda^5-azaphosphinan-4-one]
3.68	Cc1nc(N[C@H](C)c2cccc(C(F)(F)CNS(C)(=O)=O)c2F)c2cc(P3(=O)CCN(C(=O)C4CC4)CC3)ncc2n1 [Example 179, N-(2-{3-[(1R)-1-({6-[1-(cyclopropanecarbonyl)-4-oxo-1,4lambda^5-azaphosphinan-4-yl]-2-methylpyrido[3,4-d]pyrimidin-4-yl}amino)ethyl]-2-fluorophenyl}-2,2-difluoroethyl)methanesulfonamide]
5.62	Cc1nc(N[C@H](C)c2cccc(C(F)(F)F)c2C)c2cc(P3(=O)CCN(C(=O)NC4CC4)CC3)ncc2n1 [Example 184]
4.71	Cc1nc(N[C@H](C)c2cccc(C(F)(F)F)c2C)c2cc(P3(=O)CCN(C(N)=O)CC3)ncc2n1 [Example 186]
12	CCOC(=O)N1CCP(=O)(c2cc3c(N[C@H](C)c4cccc(C(F)F)c4F)nc(C)nc3cn2)CC1 [Example 187]
6.34	Cc1nc(N[C@H](C)c2cccc(C(F)(F)F)c2C)c2cc(P3(=O)CCN(C(=O)N(C)C)CC3)ncc2n1 [Example 188]
20.6	CCOC(=O)N1CCP(=O)(c2cc3c(N[C@H](C)c4cccc(C(F)(F)F)c4C)nc(C)nc3cn2)CC1 [Example 189]
8.09	CC(=O)N1CCP(=O)(c2cc3c(N[C@H](C)c4cccc(C(F)(F)F)c4Cl)nc(C)nc3cn2)CC1 [Example 191]
